In patent publication US11111245B2, “Derivatives of N-cycloalkyl/heterocycloalkyl-4-(imidazo[1,2-a]pyridine)pyrimidin-2-amine as therapeutic agents” (Aucentra Therapeutics Pty Ltd, priority 2017, dated 2021):

What was measured:
[1] = target: CDK4/D1 (Homo sapiens, UniProt P11802); assay: ADP Glo Kinase assay CDK4/D1; type: biochemical; settings: CDK4D1; for Ki: read-out: CDK inhibition, Ki (μM) CDK4D1; for remaining activity at 10 µM: compound at 10 μM, read-out: residual activity (%) at 10 μM CDK4D1
In short: (§1)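 ADP Glo luminescence, in-house: CDK4/D1, CDK6/D3 on RB-CTF substrate (Tris pH 7.5, MgCl2, DTT, BSA); CDK9/T1 on RBER-IRStide. Reaction 40 min, 37° C after ATP addition. 10-point 1:3 series, 10 μM to 0.5 nM. IC50 by 4-parameter logistic; Ki derived using ATP Km.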

[2] = target: CDK6/D3 (Homo sapiens, UniProt Q00534); assay: ADP Glo Kinase assay CDK6/D3; type: biochemical; settings: CDK6D3; compound at 10 μM; read-out: residual activity (%) at 10 μM CDK6D3
Protocol: Eurofins Pharma Discovery or Reaction Biology Corporation Kinase Profiler services were used to measure inhibition of CDKs and other kinases by radiometric assay. Inhibition of CDK4/D1, CDK6/D3 and CDK9/T1 were also determined in-house using ADP Glo Kinase assays (Promega Corporation, Madison, USA). Briefly, the kinase reaction for CDK4/D1 and CDK6/D3 was performed with kinase reaction buffer ([…] Tris base pH 7.5, 20 mM MgCl2, 0.4 mM DTT), 0.1 mg/ml BSA and RB-CTF substrate (retinoblastoma protein 1 C-terminal fraction). For CDK9/CyclinT1, the kinase reaction was performed with standard assay buffer and Kinase Dilution Buffer and RBER-IRStide substrate. Serial dilutions of 1:3 were prepared for test compounds for 10 concentrations (from 10 μM to 0.5 nM). The kinase reactions were started by addition of ATP, incubated for 40 min at 37° C. and then stopped by adding 10 μL of ADP Glo reagent. After incubation at room temperature in the dark for 40 min, 20 μL of kinase detection reagent was added per well and incubated for 40 min. Luminescence was measured using an EnVision Multilabel plate reader (PerkinElmer, Buckinghamshire, UK). Positive and negative controls were performed in the presence and absence of CDK kinases, respectively. Half-maximal inhibition (IC50) values were calculated using a 4-parameter logistic non-linear regression model with Graphpad prism (Version 6.0). Apparent inhibition constants (Ki) values were calculated from Km (ATP) and IC50 values for the respective kinases.

[3] = target: CDK9/T1 (Homo sapiens, UniProt P50750); assay: ADP Glo Kinase assay CDK9/T1; type: biochemical; settings: CDK9T1; read-out: CDK inhibition, Ki (μM) CDK9T1
In short: as §1

[4] = target: T1, CDKs and other kinases (Homo sapiens, UniProt P06493); assay: Radiometric kinase assay (Eurofins Pharma Discovery or Reaction Biology Corporation Kinase Profiler); type: biochemical; settings: CDK1B; for Ki: read-out: CDK inhibition, Ki (μM) CDK1B
T1 construct: other: CDK1B; residual activity (%) at 10 μM CDK1B; compound at 10 μM
In short: (§2)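 Other CDKs and further kinases were profiled externally by radiometric assay. In-house ADP Glo assays covered CDK4/D1 and CDK6/D3 (RB-CTF substrate, pH 7.5 Tris buffer with MgCl2, DTT, BSA) and CDK9/T1 (RBER-IRStide substrate), 40 min at 37° C.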

[5] = target: T2, CDKs and other kinases (Homo sapiens, UniProt P24941); assay: as above; type: biochemical; settings: CDK2A; for Ki: read-out: CDK inhibition, Ki (μM) CDK2A
T2 construct: other: CDK2A; residual activity (%) at 10 μM CDK2A; compound at 10 μM
In short: as §2

[6] = target: T3, CDKs and other kinases (Homo sapiens, UniProt P50613); assay: as above; type: biochemical; settings: CDK7H; for Ki: read-out: CDK inhibition, Ki (μM) CDK7H
T3 construct: other: CDK7H; residual activity (%) at 10 μM CDK7H; compound at 10 μM
In short: as §2

[7] = tested on: leukemia cell lines; assay: Resazurin cell viability assay on leukemia cell lines (72 h growth inhibition, GI50); type: cell-based; settings: Homo sapiens, MV4-11 cells
Protocol: Compounds from Example 1 were subjected to a standard MTT (3-(4,5-dimethylthiazol-2-yl)-2,5-diphenyltetrazolium bromide) and resazurin assays on solid tumour cell lines and leukemia cell lines, respectively, as previously reported (Wang S et al., J Med Chem 47:1662-1675, 2004 and Diab S. et al. CheMedChem 9:962-972, 2014). Compound concentrations required to inhibit 50% of cell growth (GI50) were calculated using non-linear regression analysis.

Sequence of CDK6/D3 (Q00534 whole entry): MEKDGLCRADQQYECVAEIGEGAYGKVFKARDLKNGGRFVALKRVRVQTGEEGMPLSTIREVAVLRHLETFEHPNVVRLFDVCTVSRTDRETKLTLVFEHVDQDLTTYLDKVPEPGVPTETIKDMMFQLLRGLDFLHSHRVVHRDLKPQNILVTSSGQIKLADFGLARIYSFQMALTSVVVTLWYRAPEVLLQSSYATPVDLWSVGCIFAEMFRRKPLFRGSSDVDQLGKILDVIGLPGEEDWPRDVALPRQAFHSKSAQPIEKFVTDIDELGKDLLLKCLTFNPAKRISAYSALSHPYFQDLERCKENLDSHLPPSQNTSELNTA
Sequence of CDK6/D3 (P30281 whole entry partner): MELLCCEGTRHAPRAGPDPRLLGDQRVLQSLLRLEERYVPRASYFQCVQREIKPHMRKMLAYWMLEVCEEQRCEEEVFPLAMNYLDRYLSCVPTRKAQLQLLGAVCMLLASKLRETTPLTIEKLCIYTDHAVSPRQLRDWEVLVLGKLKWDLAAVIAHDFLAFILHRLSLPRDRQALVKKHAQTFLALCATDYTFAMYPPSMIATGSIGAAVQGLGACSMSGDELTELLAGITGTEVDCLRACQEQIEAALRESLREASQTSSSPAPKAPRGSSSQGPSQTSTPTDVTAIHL
Sequence of CDK4/D1 (P11802 whole entry): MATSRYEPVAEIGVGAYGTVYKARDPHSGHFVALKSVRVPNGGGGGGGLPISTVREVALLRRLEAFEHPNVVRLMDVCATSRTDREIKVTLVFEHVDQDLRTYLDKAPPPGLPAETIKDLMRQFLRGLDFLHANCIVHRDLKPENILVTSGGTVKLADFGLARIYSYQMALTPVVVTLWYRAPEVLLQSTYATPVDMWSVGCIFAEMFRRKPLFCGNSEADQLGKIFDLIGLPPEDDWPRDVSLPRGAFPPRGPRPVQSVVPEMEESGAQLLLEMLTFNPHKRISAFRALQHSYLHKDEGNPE
Sequence of CDK4/D1 (P24385 whole entry partner): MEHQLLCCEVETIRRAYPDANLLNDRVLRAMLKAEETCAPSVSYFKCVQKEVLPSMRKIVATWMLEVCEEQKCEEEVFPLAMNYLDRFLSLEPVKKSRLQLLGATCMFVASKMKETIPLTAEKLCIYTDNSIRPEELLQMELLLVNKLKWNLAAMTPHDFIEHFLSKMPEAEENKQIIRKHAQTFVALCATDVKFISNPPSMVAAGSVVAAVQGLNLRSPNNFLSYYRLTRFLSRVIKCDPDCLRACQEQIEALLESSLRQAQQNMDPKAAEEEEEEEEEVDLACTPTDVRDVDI
T3 sequence (P50613 whole entry): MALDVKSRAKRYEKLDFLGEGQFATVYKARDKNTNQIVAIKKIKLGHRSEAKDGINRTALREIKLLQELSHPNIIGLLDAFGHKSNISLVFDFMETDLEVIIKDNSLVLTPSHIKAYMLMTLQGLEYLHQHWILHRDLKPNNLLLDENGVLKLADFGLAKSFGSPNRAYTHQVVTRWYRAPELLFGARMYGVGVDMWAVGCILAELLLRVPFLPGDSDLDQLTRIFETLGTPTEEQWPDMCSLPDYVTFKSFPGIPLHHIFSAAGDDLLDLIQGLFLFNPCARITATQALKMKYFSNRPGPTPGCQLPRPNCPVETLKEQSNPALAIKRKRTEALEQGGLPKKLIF
Sequence of CDK9/T1 (P50750 whole entry): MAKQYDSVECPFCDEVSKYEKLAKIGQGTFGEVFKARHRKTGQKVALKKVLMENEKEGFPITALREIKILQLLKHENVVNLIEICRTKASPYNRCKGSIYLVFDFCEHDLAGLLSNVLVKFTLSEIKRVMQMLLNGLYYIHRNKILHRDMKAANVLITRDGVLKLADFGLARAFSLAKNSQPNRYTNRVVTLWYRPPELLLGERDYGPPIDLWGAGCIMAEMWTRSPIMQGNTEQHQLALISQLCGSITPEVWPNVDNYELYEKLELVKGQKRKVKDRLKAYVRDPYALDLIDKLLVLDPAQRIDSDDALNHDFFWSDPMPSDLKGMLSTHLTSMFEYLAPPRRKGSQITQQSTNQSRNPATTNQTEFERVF
Sequence of CDK9/T1 (O60563 whole entry partner): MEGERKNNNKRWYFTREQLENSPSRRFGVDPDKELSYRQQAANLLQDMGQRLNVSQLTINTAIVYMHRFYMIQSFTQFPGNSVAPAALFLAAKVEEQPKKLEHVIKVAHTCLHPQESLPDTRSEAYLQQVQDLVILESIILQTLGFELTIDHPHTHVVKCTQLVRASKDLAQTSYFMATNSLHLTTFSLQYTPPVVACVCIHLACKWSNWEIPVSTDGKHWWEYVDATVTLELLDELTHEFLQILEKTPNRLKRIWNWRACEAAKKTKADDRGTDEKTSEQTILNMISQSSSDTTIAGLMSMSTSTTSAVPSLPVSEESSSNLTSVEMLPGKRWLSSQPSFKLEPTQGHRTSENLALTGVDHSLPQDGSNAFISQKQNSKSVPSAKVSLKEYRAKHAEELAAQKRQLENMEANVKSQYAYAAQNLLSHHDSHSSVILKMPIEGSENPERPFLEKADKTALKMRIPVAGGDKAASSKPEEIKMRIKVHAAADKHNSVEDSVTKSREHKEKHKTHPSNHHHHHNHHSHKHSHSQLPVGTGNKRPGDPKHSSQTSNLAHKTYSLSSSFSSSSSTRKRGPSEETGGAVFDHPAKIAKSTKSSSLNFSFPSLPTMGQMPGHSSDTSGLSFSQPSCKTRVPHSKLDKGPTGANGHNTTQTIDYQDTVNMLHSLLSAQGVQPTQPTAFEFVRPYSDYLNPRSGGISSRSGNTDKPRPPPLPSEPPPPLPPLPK
T1 sequence (P06493 whole entry): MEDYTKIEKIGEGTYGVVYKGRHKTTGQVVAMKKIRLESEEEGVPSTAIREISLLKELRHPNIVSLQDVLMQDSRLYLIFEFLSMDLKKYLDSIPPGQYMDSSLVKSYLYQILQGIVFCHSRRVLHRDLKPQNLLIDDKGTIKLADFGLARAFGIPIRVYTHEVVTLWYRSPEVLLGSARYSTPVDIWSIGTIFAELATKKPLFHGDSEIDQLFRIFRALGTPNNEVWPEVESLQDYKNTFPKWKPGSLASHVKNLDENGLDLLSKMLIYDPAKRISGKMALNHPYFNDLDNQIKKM

Structure (SMILES) | Ki [1] [µM] | remaining activity at 10 µM [2] [%] | Ki [3] [µM] | Ki [4] [µM] | Ki [5] [µM] | Ki [6] [µM] | GI50 [7] [µM] | remaining activity at 10 µM [1] [%] | remaining activity at 10 µM ([4]; compound at 10 μM, read-out: residual activity (%) at 10 μM CDK1B) [%] | remaining activity at 10 µM ([5]; compound at 10 μM, read-out: residual activity (%) at 10 μM CDK2A) [%] | remaining activity at 10 µM ([6]; compound at 10 μM, read-out: residual activity (%) at 10 μM CDK7H) [%]
N[C@H]1CC[C@H](Nc2ncc(F)c(-c3cnc4ccccn34)n2)CC1 [Compound 1, (1r,4r)-N^1-(5-Fluoro-4-(imidazo[1,2-a]pyridin-3-yl)pyrimidin-2-yl)cyclohexane-1,4-diamine] | 0.025 | 23 | 0.006 | 0.077 | 0.018 | 0.026 | 0.046 ± 0.005 |  |  |  | 
N[C@H]1CC[C@H](Nc2ncc(F)c(-c3cnc4ccc(F)cn34)n2)CC1 [Compound 2, (1r,4r)-N^1-(5-Fluoro-4-(6-fluoroimidazo[1,2-a]pyridin-3-yl)pyrimidin-2-yl)cyclohexane-1,4-diamine] |  | 5 | 0.005 | 0.085 | 0.012 | 0.034 | 0.006 ± 0.001 |  |  |  | 
CS(=O)(=O)N[C@H]1CC[C@H](Nc2ncc(F)c(-c3cnc4ccccn34)n2)CC1 [Compound 16, N-((1r,4r)-4-((5-Fluoro-4-(imidazo[1,2-a]pyridin-3-yl)pyrimidin-2-yl)amino)cyclohexyl)methanesulfonamide] |  | 32 | 0.029 |  | 0.001 |  | 0.01 ± 0.001 |  |  |  | 50
N[C@H]1CC[C@H](Nc2ncc(-c3ccccc3)c(-c3cnc4ccc(-c5ccccc5)cn34)n2)CC1 [Compound 80, (1r,4r)-N^1-(5-Phenyl-4-(6-phenylimidazo[1,2-a]pyridin-3-yl)pyrimidin-2-yl)cyclohexane-1,4-diamine] |  | 54 | 0.2 |  |  |  | 0.243 ± 0.053 | 61 |  |  | 
Cc1cnc(N[C@H]2CC[C@H](NC(C)C)CC2)nc1-c1cnc2ccc(Nc3cncnc3)cn12 [Compound 121, (1r,4r)-N^1-Isopropyl-N^4-(5-methyl-4-(6-(pyrimidin-5-ylamino)imidazo[1,2-a]pyridin-3-yl)pyrimidin-2-yl) cyclohexane-1,4-diamine] | 2.21 | 47 | 0.032 | 0.78 | 0.86 | 3.86 |  |  |  |  | 
Cc1cnc(N[C@H]2CC[C@H](N)CC2)nc1-c1cnc2ccc(N(C)c3cccnc3)cn12 [Compound 122, (1r,4r)-N^1-(5-Methyl-4-(6-(methyl(pyridin-3-yl)amino)imidazo[1,2-a]pyridin-3-yl)pyrimidin-2-yl)cyclohexane-1,4-diamine] |  | 44 | 0.3 | 1.71 | 1.15 | 1.16 |  | 71 |  |  | 

Further compounds by falling Ki [3], results first:

Ki [1] [µM] | remaining activity at 10 µM [2] [%] | Ki [3] [µM] | Ki [4] [µM] | Ki [5] [µM] | Ki [6] [µM] | GI50 [7] [µM] | remaining activity at 10 µM [1] [%] | remaining activity at 10 µM ([4]; compound at 10 μM, read-out: residual activity (%) at 10 μM CDK1B) [%] | remaining activity at 10 µM ([5]; compound at 10 μM, read-out: residual activity (%) at 10 μM CDK2A) [%] | remaining activity at 10 µM ([6]; compound at 10 μM, read-out: residual activity (%) at 10 μM CDK7H) [%] | Structure (SMILES)
 | 92 | 2.88 | > 5 | 3.94 | 4.56 |  | 100 |  |  |  | Cc1cnc(N2CCC3(CCNC3=O)CC2)nc1-c1cnc2ccc(-c3ccccc3)cn12 [Compound 125, 8-(5-Methyl-4-(6-phenylimidazo[1,2-a]pyridin-3-yl)pyrimidin-2-yl)-2,8-diazaspiro[4.5]decan-1-one]
 | 86 | 0.106 |  |  |  | 0.885 ± 0.137 | 18 |  |  |  | Cc1cnc(N[C@H]2CC[C@H](N)CC2)nc1-c1cnc2ccc(Nc3ccncn3)cn12 [Compound 116, (1r,4r)-N^1-(5-Methyl-4-(6-(pyrimidin-4-ylamino)imidazo [1,2-a]pyridin-3-yl)pyrimidin-2-yl)cyclohexane-1,4-diamine]
 | 2 | 0.003 |  |  |  | 0.004 ± 0.001 | 0 | 1 | 2 |  | Cc1ccc2ncc(-c3nc(N[C@H]4CC[C@H](N)CC4)ncc3F)n2c1 [Compound 4, (1r,4r)-N^1-(5-Fluoro-4-(6-methylimidazo[1,2-a]pyridin-3-yl)pyrimidin-2-yl)cyclohexane-1,4-diamine]
